Source: patent US6737383B1, “Herbicidal oxadiazolidines” (priority 1999, dated 2004)

How the values were obtained:
velvetleaf = test: Test B pre/postemergence velvetleaf; type: in vivo, Abutilon theophrasti
In short: (§1)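 Test chemicals in a non-phytotoxic solvent mixture with surfactant were sprayed preemergence onto planted seeds and postemergence onto plants 2 to 18 cm tall (1- to 4-leaf stage). After twelve to sixteen days in a greenhouse, injury was visually rated against untreated controls from 0 (no effect) to 10 (complete control).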

rape = test: Test B pre/postemergence rape; type: in vivo, Brassica napus
In short: as §1

soybean = test: Test B pre/postemergence soybean; type: in vivo, Glycine max
Source text: (§2) Seeds of bedstraw (Galium aparine), blackgrass (Alopecurus myosuroides), surinam grass (Brachiaria decumbens), cocklebur (Xanthium strumarium), corn (Zea mays), crabgrass (Digitaria sanguinalis), giant foxtail (Setaria faberii), morningglory (Ipomoea hederacea), pigweed (Amaranthus retroflexus), rape (Brassica napus), soybean (Glycine max), sugar beet (Beta vulgaris), velvetleaf (Abutilon theophrasti), wheat (Triticum aestivum), wild oat (Avena fatua) and purple nutsedge (Cyperus rotundus) tubers were planted and treated preemnergence with test chemicals formulated in a non-phytotoxic solvent mixture which included a surfactant.
(§3) At the same time, these crop and weed species were also treated with postemergence applications of test chemicals formulated in the same manner. Plants ranged in height from 2 to 18 cm (1- to 4-leaf stage) for postemergence treatments. Plant species in the flood test consisted of rice (Oryza sativa), smallflower flatsedge (Cyperus difformis), duck salad (Heteranthera limosa) and bamyardgrass (Echinochloa crus-galli) grown to the 2-leaf stage for testing. Treated plants and controls were maintained in a greenhouse for twelve to sixteen days, after which all species were compared to controls and visually evaluated. Plant response ratings, summarized in Table B, are based on a scale of 0 to 10 where 0 is no effect and 10 is complete control. A dash (−) response means no test result.

wheat = test: Test B pre/postemergence wheat; type: in vivo, Triticum aestivum
Source text: as §2, §3

purple nutsedge = test: Test B pre/postemergence purple nutsedge; type: in vivo, Cyperus rotundus
Source text: as §2, §3

giant foxtail = test: Test B pre/postemergence giant foxtail; type: in vivo, Setaria faberii
Source text: as §2, §3

cocklebur = test: Test B pre/postemergence cocklebur; type: in vivo, Xanthium strumarium
Source text: as §2, §3

sugar beet = test: Test B pre/postemergence sugar beet; type: in vivo, Beta vulgaris
In short: as §1

blackgrass = test: Test B pre/postemergence blackgrass; type: in vivo, Alopecurus myosuroides
Source text: as §2, §3

pigweed = test: Test B pre/postemergence pigweed; type: in vivo, Amaranthus retroflexus
In short: as §1

morningglory = test: Test B pre/postemergence morningglory; type: in vivo, Ipomoea hederacea
In short: as §1

surinam grass = test: Test B pre/postemergence surinam grass; type: in vivo, Brachiaria decumbens
In short: as §1

bedstraw = test: Test B pre/postemergence bedstraw; type: in vivo, Galium aparine; conditions: Preemergence
In short: as §1

wild oat = test: Test B pre/postemergence wild oat; type: in vivo, Avena fatua
Source text: as §2, §3

corn = test: Test B pre/postemergence corn; type: in vivo, Zea mays
Source text: as §2, §3

crabgrass = test: Test B pre/postemergence crabgrass; type: in vivo, Digitaria sanguinalis
Source text: as §2, §3

[1] = Postemergence, Rate 125 g/ha, scale of 0 to 10 where 0 is no effect and 10 is complete control
[2] = Preemergence, Rate 125 g/ha, scale of 0 to 10 where 0 is no effect and 10 is complete control
[3] = Preemergence, Rate 250 g/ha, scale 0 (no effect) to 10 (complete control)
[4] = Rate 250 g/ha, Postemergence, scale 0 to 10, 0 is no effect, 10 is complete control
[5] = Rate 500 g/ha, Postemergence, scale 0 to 10, 0 is no effect, 10 is complete control
[6] = Rate 500 g/ha, Preemergence, scale 0 to 10 (0 no effect, 10 complete control)
[7] = Rate 1000 g/ha, Preemergence, scale 0 to 10 (0 no effect, 10 complete control)
[8] = Postemergence, Rate 1000 g/ha, scale 0 to 10 (0 no effect, 10 complete control)

## CCOP(=O)(Cn1c(=O)on(C(=O)N(c2ccc(F)cc2F)C(C)C)c1=O)OCC [Compound 736]
velvetleaf; [1]
  Velvetleaf plant response rating: 2
velvetleaf; [2]
  Plant response rating, Velvetleaf: 0
velvetleaf; [3]
  Velvetleaf plant response rating: 0
velvetleaf; [4]
  Velvetleaf plant response rating: 2
velvetleaf; [5]
  Velvetleaf plant response rating: 3
velvetleaf; [6]
  Velvetleaf plant response rating: 4
velvetleaf; [7]
  Plant response rating, Velvetleaf: 3
rape; [1]
  Rape plant response rating: 0
rape; [8]
  Rape plant response rating: 0
rape; [2]
  Plant response rating, Rape: 0
rape; [3]
  Rape plant response rating: 0
rape; [4]
  Rape plant response rating: 0
rape; [5]
  Rape plant response rating: 0
rape; [6]
  Rape plant response rating: 2
rape; [7]
  Plant response rating, Rape: 2
soybean; [1]
  Soybean plant response rating: 3
soybean; [2]
  Plant response rating, Soybean: 0
soybean; [3]
  Soybean plant response rating: 2
soybean; [4]
  Soybean plant response rating: 4
soybean; [5]
  Soybean plant response rating: 3
soybean; [6]
  Soybean plant response rating: 2
soybean; [7]
  Plant response rating, Soybean: 3
wheat; [1]
  Wheat plant response rating: 2
wheat; [2]
  Plant response rating, Wheat: 3
wheat; [3]
  Wheat plant response rating: 3
wheat; [4]
  Wheat plant response rating: 2
wheat; [5]
  Wheat plant response rating: 2
wheat; [6]
  Wheat plant response rating: 8
wheat; [7]
  Plant response rating, Wheat: 9
Purple nutsedge; [1]
  Nutsedge plant response rating: 0
Purple nutsedge; [8]
  Nutsedge plant response rating: 5
Purple nutsedge; [2]
  Plant response rating, Nutsedge: 0
Purple nutsedge; [3]
  Nutsedge plant response rating: 0
Purple nutsedge; [4]
  Nutsedge plant response rating: 0
Purple nutsedge; [5]
  Nutsedge plant response rating: 2
Purple nutsedge; [6]
  Nutsedge plant response rating: 10
Purple nutsedge; [7]
  Plant response rating, Nutsedge: 8
Giant foxtail; [1]
  Giant foxtail plant response rating: 2
Giant foxtail; [8]
  Giant foxtail plant response rating: 6
Giant foxtail; [2]
  Plant response rating, Giant foxtail: 8
Giant foxtail; [3]
  Giant foxtail plant response rating: 9
Giant foxtail; [4]
  Giant foxtail plant response rating: 2
Giant foxtail; [5]
  Giant foxtail plant response rating: 7
Giant foxtail; [6]
  Giant foxtail plant response rating: 9
Giant foxtail; [7]
  Plant response rating, Giant foxtail: 8
cocklebur; [1]
  Cocklebur plant response rating: 0
cocklebur; [8]
  Cocklebur plant response rating: 10
cocklebur; [2]
  Plant response rating, Cocklebur: 0
cocklebur; [3]
  Cocklebur plant response rating: 2
cocklebur; [4]
  Cocklebur plant response rating: 0
cocklebur; [5]
  Cocklebur plant response rating: 3
cocklebur; [6]
  Cocklebur plant response rating: 2
cocklebur; [7]
  Plant response rating, Cocklebur: 2
Sugar beet; [1]
  Sugarbeets plant response rating: 0
Sugar beet; [2]
  Plant response rating, Sugarbeets: 0
Sugar beet; [3]
  Sugarbeets plant response rating: 0
Sugar beet; [4]
  Sugarbeets plant response rating: 0
Sugar beet; [5]
  Sugarbeets plant response rating: 0
Sugar beet; [6]
  Sugarbeets plant response rating: 3
Sugar beet; [7]
  Plant response rating, Sugarbeets: 5
blackgrass; [1]
  Blackgrass plant response rating: 0
blackgrass; [8]
  Blackgrass plant response rating: 7
blackgrass; [2]
  Plant response rating, Blackgrass: 2
blackgrass; [3]
  Blackgrass plant response rating: 4
blackgrass; [4]
  Blackgrass plant response rating: 2
blackgrass; [5]
  Blackgrass plant response rating: 3
blackgrass; [6]
  Blackgrass plant response rating: 9
blackgrass; [7]
  Plant response rating, Blackgrass: 10
pigweed; [1]
  Redroot pigweed plant response rating: 2
pigweed; [8]
  Redroot pigweed plant response rating: 3
pigweed; [2]
  Plant response rating, Redroot pigweed: 0
pigweed; [3]
  Redroot pigweed plant response rating: 2
pigweed; [5]
  Redroot pigweed plant response rating: 0
pigweed; [6]
  Redroot pigweed plant response rating: 2
pigweed; [7]
  Plant response rating, Redroot pigweed: 2
morningglory; [1]
  Morningglory plant response rating: 6
morningglory; [8]
  Morningglory plant response rating: 7
morningglory; [2]
  Plant response rating, Morningglory: 0
morningglory; [3]
  Morningglory plant response rating: 2
morningglory; [4]
  Morningglory plant response rating: 6
morningglory; [5]
  Morningglory plant response rating: 5
morningglory; [6]
  Morningglory plant response rating: 6
morningglory; [7]
  Plant response rating, Morningglory: 6
Surinam grass; [1]
  B. signalgrass plant response rating: 0
Surinam grass; [8]
  B. signalgrass plant response rating: 7
Surinam grass; [2]
  Plant response rating, B. signalgrass: 3
Surinam grass; [3]
  B. signalgrass plant response rating: 3
Surinam grass; [4]
  B. signalgrass plant response rating: 0
Surinam grass; [5]
  B. signalgrass plant response rating: 0
Surinam grass; [6]
  B. signalgrass plant response rating: 8
Surinam grass; [7]
  Plant response rating, B. signalgrass: 9
bedstraw; Rate 125 g/ha, scale of 0 to 10 where 0 is no effect and 10 is complete control
  Plant response rating, Bedstraw: 0
bedstraw; Rate 250 g/ha, scale 0 (no effect) to 10 (complete control)
  Bedstraw plant response rating: 0
bedstraw; Rate 500 g/ha, scale 0 to 10 (0 no effect, 10 complete control)
  Bedstraw plant response rating: 8
Wild oat; [1]
  Wild oats plant response rating: 2
Wild oat; [2]
  Plant response rating, Wild oats: 2
Wild oat; [3]
  Wild oats plant response rating: 9
Wild oat; [4]
  Wild oats plant response rating: 3
Wild oat; [5]
  Wild oats plant response rating: 3
Wild oat; [6]
  Wild oats plant response rating: 9
Wild oat; [7]
  Plant response rating, Wild oats: 10
corn; [1]
  Corn plant response rating: 4
corn; [8]
  Corn plant response rating: 4
corn; [2]
  Plant response rating, Corn: 2
corn; [3]
  Corn plant response rating: 2
corn; [4]
  Corn plant response rating: 3
corn; [5]
  Corn plant response rating: 4
corn; [6]
  Corn plant response rating: 2
corn; [7]
  Plant response rating, Corn: 9
crabgrass; [1]
  Crabgrass plant response rating: 3
crabgrass; [8]
  Crabgrass plant response rating: 6
crabgrass; [2]
  Plant response rating, Crabgrass: 3
crabgrass; [3]
  Crabgrass plant response rating: 4
crabgrass; [4]
  Crabgrass plant response rating: 3
crabgrass; [5]
  Crabgrass plant response rating: 4
crabgrass; [6]
  Crabgrass plant response rating: 9
crabgrass; [7]
  Plant response rating, Crabgrass: 9
